According to a compilation of properties of binary mixtures (doi:10.1016/j.molliq.2012.11.030):

Experiment: xn = mol fraction of the nth substance listed
Conditions: 298.15 K, 101 kPa

CC(=O)[O-].CC[NH3+] + O
Conditions | electrical conductivity [S/m]
x1 = 0.003 | 0.782
x1 = 0.0103 | 1.89
x2 = 0 | 0.222
x2 = 0.2027 | 0.452
x2 = 0.3481 | 0.745
x2 = 0.7999 | 2.48
x2 = 0.8502 | 2.75
x2 = 0.9436 | 3.1
x2 = 0.9502 | 3.11
x2 = 0.96 | 3.08
x2 = 0.9685 | 2.9
x2 = 0.9799 | 2.65
